The text below walks through data of patent US20220315908A1, “NOVEL GARDNERELLA ENDOLYSINS AND USES THEREOF” (priority 2019, published 2022).

In brackets after ≈: the same amount, converted by molar mass.

In the test the test system is G. vaginalis (Gv_9). Nature of the test: MIC and MBC microbroth dilution. Type of test: cell-based, Gardnerella vaginalis. As to conditions: for MIC / MBC: Gardnerella vaginalis; for MIC: 48 h. How it is done: One of the main deficiencies in the treatment of BV is the high rate of recurrence in many women, which leads to repeated administration of antibiotics and concomitant destabilization of the microbiome and other side effects. The minimal inhibitory concentration (MIC) and minimal bactericidal concentration (MBC) on Gardnerella cells of the strains also used for the endolysin activity assays were then measured using the method described in Reference Example 6 and 7. […] Essentially, Gardnerella suspensions at 2.5×10^7 CFU/ml were incubated with the concentration of antibiotics as indicated and incubated for 48 h at 37° C. under anaerobic conditions. […] OD(610) was measured at the beginning and the end of the experiment. At the end of the experiment, 2 ul of each reaction mix was spotted on agar to determine the MBC.
The conditions under which MIC and MBC were measured are more rigorous than the standard.
Example 7—Activity assays of a representative (H2B10) of domain swapped endolysins on the growth in suspension of different Gardnerella strains. […] The conditions under which MBC was measured are more rigorous than the standard. […] In general, it is known, that antibiotics only insufficiently eradicate the Gardnerella biofilm, a hallmark of BV, which is one suspected reason for the reported very high recurrence rate of BV. Despite leaving residual viable biofilm, antibiotics wipe parts of the beneficial organisms of the vaginal microbiome which then opens an ecological niche for other pathogens, e.g. fungi.
Bacteria were plated from cryo stock on BD Choc Agar plates (Gardnerella) and incubated at 37° C. for 48 h under anaerobic conditions. Colonies were scraped from the plate, resuspended in Hardy Broth or NYC-III-HS-pH 5.0, and the suspension adjusted to OD (610 or 620 nm as indicated) 0.05. It has to be noted that two Tecan Microplate readers, having respectively a 610 nm or 620 nm filter, have been used interchangeably in the experiments. Although it doesn't make any difference for the experiments, the exact wavelength used is specified in each example. Antibiotics were prepared as 20× stocks for each of the required final concentrations. 95 μl of cell suspension was mixed with 5 μl antibiotics dilution in a 384-well plate. OD (610-620 as indicated) at the start of the reaction was measured, then the plate was incubated at 37° C. for 48 h under anaerobic conditions. After that, the OD (610-620 as indicated) was measured again for MIC determination, where MIC was defined as the lowest concentration of antibiotic where the OD (610-620 as indicated) was not above the level measured at the beginning of the experiment. After measuring OD, 2 μl of each well were spotted on a NYC-III+HS Agar plate. The plates were then incubated for further 48 h at 37° C. under anaerobic conditions. After incubation, cell growth on each spot was evaluated, and the MBC defined as the lowest concentration of antibiotics where no bacteria grew on the plate. The experiments were conducted in triplicate for each condition. In the second round of MIC and MBC experiments with antibiotics the Gardnerella cell suspension was adjusted to the McFarland standard 0.5 (approximately OD (610) 0.07) and then diluted 1:75 according to the CLSI (Clinical and Laboratory Standards Institute) standards. Antibiotics were prepared according to the CLSI standards and 50 μl of cell suspension was mixed in a 96-well plate with 50 μl antibiotics. Otherwise the MIC and MBC was determined as described above.
A general note: In broth dilution the organism is exposed to a series of concentrations in liquid medium.

What is called MIC is the lowest concentration found to suppress growth. Low readings indicate inhibition by little substance, high ones a need for much substance. As usually defined, the MBC is the lowest tested concentration that kills the bacteria rather than only halting them. A lower MBC goes with more potent killing. Take `Cc1ncc([N+](=O)[O-])n1CCO` [Metronidazole]: the MIC by setting is: (first round: […]10^7 CFU/ml, Hardy broth, 384-well, 48 h 37° C. anaerobic) 128 µg/mL (≈ 748 µM); (second round: 1×10^5-1×10^6 CFU/ml (CLSI), NYC-III broth, 96-well, 48 h anaerobic) 8 µg/mL (≈ 46.7 µM). For the same molecule, the MBC was greater than 128 µg/mL (first round: […]10^7 CFU/ml, minimal concentration fully eradicating the suspension) and 16 µg/mL (≈ 93.5 µM) (second round: 1×10^5-1×10^6 CFU/ml (CLSI), NYC-III broth, 96-well). Also, where the note is “first round”, the “resistance class of MIC, Metronidazole” value is “R (>=32 μg/mi for Metronidazole)”. Further, the “resistance class given with MBC, Metronidazole” value (second round) is “R (>=32 μg/mi for Metronidazole)”.
